According to PubChem BioAssay (NCI):
“And” between values parts separate entries of the source, which are not always exact repeats. Equal values may be shown once.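 1) Cells in 96-well plates. 2) Compound, 48 h, 5 concentrations. 3) Linear interpolation between surrounding doses. 4) Unreached endpoint = highest concentration. At the GI50, growth is halved. The concentration for full growth arrest is given as TGI.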

Legend:
Assay in all cases: DTP human tumour cell line panel, 48 h
M19-MEL melanoma = system: M19-MEL melanoma
SNB-78 CNS = system: SNB-78 CNS
DMS 114 small cell lung = system: DMS 114 small cell lung
HOP-18 NSCLC = system: HOP-18 NSCLC
DU-145 prostate = system: DU-145 prostate
PC-3 prostate = system: PC-3 prostate
BT-549 breast = system: BT-549 breast
HS 578T breast = system: HS 578T breast
NCI/ADR-RES ovarian = system: NCI/ADR-RES ovarian
MCF7 breast = system: MCF7 breast

Row | Structure (SMILES) | TGI (M19-MEL melanoma) [µM] | TGI (SNB-78 CNS) | TGI (DMS 114 small cell lung) [µM] | TGI (HOP-18 NSCLC) | other results
1 | COc1cc(OC)cc(N2CCC(c3c(N)nc(N)nc3Cl)CC2)c1 | > 100 | > 100 µM | – | – | –
2 | C=CCN1C(=O)CS/C1=N\NC(=O)c1c(C)nc2sccn12 | > 100 | – | > 100 | > 100 µM | –
3 | [Cu+2].[Cu+2].[O-]c1ccccc1C=Nc1ccccc1[O-].[O-]c1ccccc1C=Nc1ccccc1[O-] | 3.69 | 36.4 µM | 5.13 | 16.6 µM | GI50 (M19-MEL melanoma): 1.86 µM; GI50 (DMS 114 small cell lung): 1.96 µM; GI50 (HOP-18 NSCLC): 2.99 µM; GI50 (SNB-78 CNS): 13.5 µM
4 | COc1nc(OC)c2c(=O)oc(-c3ccccc3)cc2n1 | > 100 | > 100 µM | > 100 | – | –
5 | CS(=O)(=O)C1S(=O)(=O)OCCOS1(=O)=O | > 100 | > 100 µM | > 100 | > 100 µM | –
6 | O=C(O)CSc1n[nH]c(/C=C/c2ccccc2)n1 | > 100 | > 100 µM | > 100 | > 100 µM | –
7 | CCCCN(CC)C(=O)C(=O)C1C(=O)Nc2ccccc2S1=O (centres undefined) | > 100 | > 100 µM | > 100 | > 100 µM | –
8 | COC(=O)N1[C@H]2Cc3c(OC)c(C)c(OC)c(OC)c3[C@@H]1/C(=C\c1cc(OC)c(OC)c(C)c1OC)N(Cc1ccccc1)C2=O | 60 | – | 35.3 | > 100 µM | –
9 | OCC(O)CC[CH2][Sn]([c]1ccccc1)([c]1ccccc1)[c]1ccccc1 (centres undefined) | 31.1 | 41.3 µM | – | 39.7 µM | GI50 (M19-MEL melanoma): 17.1 µM; GI50 (HOP-18 NSCLC): 24.9 µM; GI50 (SNB-78 CNS): 19.6 µM
10 | O=C1CCC2(c3ccc(F)cc3)Nc3ccccc3N12 (centres undefined) | > 100 | > 100 µM | > 100 | – | –
11 | O=C(Cn1ccnc1[N+](=O)[O-])N(CCO)CCO | > 1250 | > 1250 µM | > 1250 | > 1250 µM | TGI (DU-145 prostate): > 250 µM; TGI (PC-3 prostate): > 250 µM; TGI (BT-549 breast): > 250 µM; TGI (HS 578T breast): > 250 µM; GI50 (NCI/ADR-RES ovarian): > 1250 µM; TGI (NCI/ADR-RES ovarian): > 1250 µM; GI50 (MCF7 breast): > 250 µM; TGI (MCF7 breast): > 1250 µM
12 | Cc1c(Cl)ccc2c1NC(=O)C2(O)CC(=O)c1ccc(Cl)cc1Cl (centres undefined) | > 50 | > 50 µM | > 50 | – | TGI (DU-145 prostate): > 50 µM; TGI (PC-3 prostate): > 50 µM; TGI (BT-549 breast): > 50 µM; TGI (HS 578T breast): 48.9 µM; TGI (NCI/ADR-RES ovarian): > 50 µM; TGI (MCF7 breast): > 50 µM
13 | CC(C)(C)c1nc2c(o1)C(=Nc1ccccc1)c1ccccc1C2=O | 2.32 | 43.7 µM | – | 20.9 µM | –
14 | CCc1nc2c(O)ccc(O)c2nc1C | 19.4 | 62.6 µM | 36.1 | 35.3 µM | –
15 | CC(NC(=O)c1ccccc1)C(=O)N(Cc1ccccc1)Cc1ccccc1 (centres undefined) | 67.7 | 96.6 µM | 53.8 | – | –
16 | COC(=O)c1cnc2nc(N3CCOCC3)[nH]n2c1=O | > 100 | > 100 µM | > 100 | – | –
17 | CCCCOC1CC2(c3ccc(OC)cc3)C(=O)c3ccccc3N2O1 (centres undefined) | > 10 | > 10 µM | 99.5 | – | –
18 | CCOC(C)OCC#CCCBr (centres undefined) | > 100 | > 100 µM | > 100 | > 100 µM | –
19 | COC(=O)/C(=C/c1ccc(OC)cc1)C(C(=O)O)=C(C)C | > 100 | > 100 µM | > 100 | > 100 µM | –
20 | CC(C)(C)C1CC[C@H]2c3c([nH]c4ccc(Br)cc34)[C@H]3C(=O)N(c4ccccc4)C(=O)[C@H]3[C@H]2C1 (some centres undefined) | 49.8 | 33.4 µM | 69.1 | > 100 µM | –
21 | COC(=O)OCC1OC(N2C(=O)NC(=O)C(I)C2N=[N+]=[N-])CC1OC(=O)OC (centres undefined) | > 100 | > 100 µM | – | – | –

Row | Structure (SMILES) | TGI (M19-MEL melanoma) [µM] | TGI (SNB-78 CNS) | TGI (DMS 114 small cell lung) [µM] | TGI (HOP-18 NSCLC) | other results
22 | O=[N+]([O-])c1ccccc1S(=O)c1ccccc1 (centres undefined) | > 100 | > 100 µM | 51.8 | – | –
23 | COc1cc2c(cc1O)[C@H](C)C(c1ccc(Cl)cc1)O2 (some centres undefined) | 33 | > 100 µM | 30.8 | > 100 µM | –
24 | Nc1nc2ncn(CCO)c2c(=O)[nH]1 | > 100 | > 100 µM | – | > 100 µM | –
25 | CN(C)CCC1(C2=CCCC2)CC/C(=C\c2ccc3c(c2)OCO3)C1=O (centres undefined) | 32.6 | 35 µM | 32.7 | 26.4 µM | –
26 | Cc1c(Cl)cccc1NC(=O)CC1Sc2ccccc2NC1=O (centres undefined) | > 100 | 99 µM and > 100 µM | > 100 | 32.7 µM and 31.5 µM | TGI (DU-145 prostate): > 100 µM; TGI (PC-3 prostate): > 86.5 µM; TGI (BT-549 breast): > 100 µM; TGI (HS 578T breast): 25.3 µM; TGI (NCI/ADR-RES ovarian): 58.9 µM; TGI (MCF7 breast): > 87 µM
27 | COc1ccc(CNc2cc(OC)cc(OC)c2)cc1 | > 100 | 87.7 µM and 86.6 µM | > 100 | > 100 µM | GI50 (HOP-18 NSCLC): > 100 µM
28 | CN(C)CCNC(=O)c1ccc2ccc3cccnc3c2n1 | – | > 34.8 µM | 25.6 | > 100 µM | –
29 | O=c1cc2n(c(=O)[nH]1)C1OC(C(O)C1O)[C@@H]2CCO (some centres undefined) | > 100 | > 100 µM | > 100 | – | –
30 | CS(=O)(=O)NNS(=O)(=O)c1ccc(Br)cc1 | > 100 | > 100 µM | > 100 | > 100 µM | –
31 | O=CC1=CCCC2(C1)OCCO2 | > 100 | > 100 µM | > 100 | – | –
32 | CC(=O)O[C@]1(C(C)=O)CC[C@H]2[C@@H]3C[C@H](C)C4=CC(=O)C=C[C@]4(C)[C@@]3(F)[C@@H](O)C[C@@]21C | > 100 | > 100 µM | > 100 | – | –
33 | O=c1/c(=C/c2cccc3ccccc23)sc2nc3ccccc3n12 | > 100 | > 100 µM | > 100 | > 100 µM | –
34 | OCCN1CCN(CCCN2c3ccccc3Sc3ccc(C(F)(F)F)cc32)CC1 | – | – | – | – | GI50 (DU-145 prostate): 6.29 µM and 12.9 µM; TGI (DU-145 prostate): 12.7 µM and 25.7 µM; GI50 (PC-3 prostate): 1.97 µM and 8.77 µM and 10.3 µM; TGI (PC-3 prostate): 8.14 µM and 21.6 µM and 23 µM; GI50 (BT-549 breast): 5.65 µM and 2.92 µM and 3.29 µM; TGI (BT-549 breast): 12.1 µM and 17.7 µM and 9.5 µM; GI50 (HS 578T breast): 1.86 µM and 13.5 µM and 8.23 µM; TGI (HS 578T breast): 13.1 µM and 60.6 µM and 41.6 µM; GI50 (NCI/ADR-RES ovarian): 3.28 µM and 10.8 µM and 9.73 µM; TGI (NCI/ADR-RES ovarian): 10.4 µM and 23.4 µM and 23.5 µM; GI50 (MCF7 breast): 1.2 µM and 6.8 µM and 7.74 µM; TGI (MCF7 breast): 2.92 µM and 22.6 µM and 25.1 µM
35 | C[C@@H]1O[C@@H](O[C@H]2C[C@@H](O)[C@]3(CO)C4C(CC[C@]3(O)C2)[C@@]2(O)CC[C@H](C3=CC(=O)OC3)[C@@]2(C)C[C@H]4O)[C@H](O)[C@H](O)[C@H]1O (some centres undefined) | – | – | – | – | GI50 (DU-145 prostate): 0.0104 µM; TGI (DU-145 prostate): 0.02 µM; GI50 (PC-3 prostate): 0.0214 µM; TGI (PC-3 prostate): 0.113 µM; GI50 (BT-549 breast): 0.0186 µM; TGI (BT-549 breast): 0.0624 µM; GI50 (HS 578T breast): 0.0182 µM; TGI (HS 578T breast): 4.32 µM; GI50 (NCI/ADR-RES ovarian): 0.0154 µM; TGI (NCI/ADR-RES ovarian): 0.0452 µM; GI50 (MCF7 breast): 0.0244 µM; TGI (MCF7 breast): 0.121 µM
36 | N=C(N)/N=C(/C=C/c1ccccc1)CC1OC(=O)c2ccccc21 (centres undefined) | > 100 | – | > 100 | – | –
37 | COc1ccc(CC(=O)c2cc(OC)c(OC)cc2C)cc1OC | > 100 | > 100 µM | > 100 | – | –
38 | Cc1cccc(C)c1NC(=O)CCC(=O)NNC(=O)c1cc(O)c2ccccc2c1 | > 100 | – | 65.2 | > 100 µM | –
39 | N#C/C(=C\c1ccc(CP(=O)(O)O)cc1)C(N)=O | > 100 | – | > 100 | > 100 µM | –
40 | COC1/C=C/O[C@@]2(C)Oc3c(C)c(O)c4c(O)c(cc(O)c4c3C2=O)NC(=O)/C(C)=C\C=C\[C@H](C)C(O)[C@@H](C)[C@@H](O)[C@@H](C)[C@H](OC(C)=O)[C@@H]1C (some centres undefined) | 26.1 | 95 µM | 20.6 | 38.8 µM | GI50 (DU-145 prostate): 12.3 µM; TGI (DU-145 prostate): 26.8 µM and 54.5 µM; GI50 (PC-3 prostate): 7.74 µM; TGI (PC-3 prostate): 20.4 µM and 34 µM; GI50 (BT-549 breast): 29 µM; TGI (BT-549 breast): 37.7 µM and 84.4 µM; GI50 (HS 578T breast): 24.2 µM; TGI (HS 578T breast): 64.6 µM and 114 µM; GI50 (NCI/ADR-RES ovarian): 24 µM; TGI (NCI/ADR-RES ovarian): 59.7 µM and 86 µM; GI50 (MCF7 breast): 17.3 µM; TGI (MCF7 breast): 32.3 µM and 29.7 µM
41 | CCCCCCC1CCC2CCCC(C)N12 (centres undefined) | > 100 | – | > 100 | > 100 µM | –
